Measurements published in patent US7592329B2, “Crystalline complexes of fluticasone-2-furoate” (Glaxo Group Limited, priority 2003, dated 2009).
Entries after “also recorded” stand apart in the source; their conditions may differ.

Experiments:
[1] = target: glucocorticoid receptor (GR) (Homo sapiens, UniProt P04150); assay: Transactivation (GR) renilla luciferase reporter assay in A549 cells; type: cell-based; details: GRE renilla luciferase reporter, read-out: Transactivation (GR) ED50
Text: The glucocorticoid receptor (GR) can function in at least two distinct mechanisms, by upregulating gene expression through the direct binding of GR to specific sequences in gene promotors, and by downregulating gene expression that is being driven by other transcription factors (such as NFκB or AP-1) through their direct interaction with GR.
The first cell line contains the firefly luciferase reporter gene under the control of a synthetic promoter that specifically responds to activation of the transcription factor NFκB when stimulated with TNFα. The second cell line contains the renilla luciferase reporter gene under the control of a synthetic promotor that comprises 3 copies of the consensus glucocorticoid response element, and which responds to direct stimulation by glucocorticoids. Simultaneous measurement of transactivation and transrepression was conducted by mixing the two cell lines in a 1:1 ratio in 96 well plate (40,000 cells per well) and growing overnight at 37° C. Test compounds were dissolved in DMSO, and added to the cells at a final DMSO concentration of 0.7%. After incubation for 1 h 0.5 ng/ml TNFα (R&D Systems) was added and after a further 15 hours at 37° C., the levels of firefly and renilla luciferase were measured using the Packard Firelite kit following the manufacturers' directions. Dose response curves were constructed from which EC50 values were determined.

[2] = target: T1, glucocorticoid receptor (Homo sapiens, UniProt P04150); assay: In vitro functional glucocorticoid assays, metabolite versus parent; type: cell-based
T1 sequence (P04150 1-777): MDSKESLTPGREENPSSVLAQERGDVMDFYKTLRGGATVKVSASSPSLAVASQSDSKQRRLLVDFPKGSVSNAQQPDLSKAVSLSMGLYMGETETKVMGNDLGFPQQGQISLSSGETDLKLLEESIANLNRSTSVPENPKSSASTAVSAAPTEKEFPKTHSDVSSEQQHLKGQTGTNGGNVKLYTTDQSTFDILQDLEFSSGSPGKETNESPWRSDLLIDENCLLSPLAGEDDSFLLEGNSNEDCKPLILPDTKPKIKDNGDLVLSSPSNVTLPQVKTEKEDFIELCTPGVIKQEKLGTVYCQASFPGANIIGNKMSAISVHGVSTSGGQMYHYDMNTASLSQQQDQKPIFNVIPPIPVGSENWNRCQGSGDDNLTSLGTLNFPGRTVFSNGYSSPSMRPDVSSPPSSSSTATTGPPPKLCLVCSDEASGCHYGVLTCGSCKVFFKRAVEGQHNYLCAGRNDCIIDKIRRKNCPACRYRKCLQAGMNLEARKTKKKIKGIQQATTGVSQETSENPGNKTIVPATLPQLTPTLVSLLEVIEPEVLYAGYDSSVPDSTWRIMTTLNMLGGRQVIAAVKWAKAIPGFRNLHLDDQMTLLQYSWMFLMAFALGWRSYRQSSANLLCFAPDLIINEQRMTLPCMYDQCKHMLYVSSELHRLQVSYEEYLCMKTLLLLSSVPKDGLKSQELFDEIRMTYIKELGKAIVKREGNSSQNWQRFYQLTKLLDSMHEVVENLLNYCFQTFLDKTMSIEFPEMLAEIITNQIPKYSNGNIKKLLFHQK
Procedure: Compound (I) undergoes highly efficient hepatic metabolism to yield the 17-β carboxylic acid (X) as the sole major metabolite in rat and human in vitro systems.
Pharmacological activity was assessed in a functional in vitro assay of glucocorticoid agonist activity which is generally predictive of anti-inflammatory or anti-allergic activity in vivo.
The functional assay was based on that described by K. P. Ray et al., Biochem J. (1997), 328, 707-715. A549 cells stably transfected with a reporter gene containing the NF-κB responsive elements from the ELAM gene promoter coupled to sPAP (secreted alkaline phosphatase) were treated with test compounds at appropriate doses for 1 hour at 37° C. The cells were then stimulated with tumour necrosis factor (TNF, 10 ng/ml) for 16 hours, at which time the amount of alkaline phosphatase produced is measured by a standard colourimetric assay. […]
In a variant of the above method, to monitor these functions, two reporter plasmids have been generated and introduced separately into A549 human lung epithelial cells by transfection. […] After incubation for 1 h 0.5 ng/ml TNFα (R&D Systems) was added and after a further 15 hours at 37° C., the levels of firefly and renilla luciferase were measured using the Packard Firelite kit following the manufacturers' directions. Dose response curves were constructed from which EC50 values were determined.

[3] = Lung absorption (mean absorption time) in man; type: in vivo; details: average; for time taken for 90% of lung dose to be absorbed: mathematical deconvolution of plasma concentration time data
[4] = tested on: thymus involution; assay: Rat model of thymus involution; type: in vivo; details: 3 daily IT doses of 100 μg
[5] = tested on: human hepatocytes; assay: In vitro metabolism in human hepatocytes; type: in vitro ADME; details: 17-β carboxylic acid (X) the only significant metabolite
[6] = tested on: human lung tissue; assay: In vitro human lung tissue affinity experiments; type: in vitro ADME
[7] = tested on: human bronchial epithelial cells; assay: Cell transport and accumulation studies using human bronchial epithelial cells; type: in vitro ADME
[8] = Pharmacokinetics after intra-tracheal dry powder dosing in the pig; type: in vivo; details: for time after dosing up to which quantifiable in plasma: anaesthetised pigs, 1 mg intra-tracheal, LLOQ 10 pg/mL compound (I), 20 pg/mL fluticasone propionate
Procedure: Serial blood samples were taken for up to 8 h following dosing.

[9] = Pharmacokinetics after intravenous administration in the anaesthetised pig; type: in vivo; details: IV mixture of the two compounds at 0.1 mg/kg
Text: The clearance of these two glucocorticoids is similar is this experimental pig model.

[10] = tested on: rat hepatocytes; assay: In vitro metabolism in rat hepatocytes; type: in vitro ADME; details: 17-β carboxylic acid (X) the only significant metabolite
[11] = Pharmacokinetics after intravenous (IV) and oral dosing in rats; type: in vivo, male Wistar Han rats; details: rat

mean absorption time (MAT) [3] [h]	time taken for 90% of lung dose to be absorbed [3] [h]	reduction of thymus weight [4] [%]	affinity for human lung tissue [6]	accumulation within the cell layer compared with fluticasone propionate [7]	flux across the cell layer compared with fluticasone propionate [7]	time after dosing up to which quantifiable in plasma [8]	clearance compared with fluticasone propionate [9]	bioavailability ([11]; male, Wistar Han, plasma, oral, 0.1 mg/kg, oral 0.1 mg/kg vs IV 0.1 mg/kg) [%]	plasma clearance (in words) ([11]; in vivo)	SMILES	EC50 [1] [µM]	fold less active than the parent compound [2] [fold]	manner of metabolism [5]	systemic exposure compared with fluticasone propionate ([8]; dry powder delivery to the lungs of anaesthetised pigs)	manner of metabolism [10]
–	–	–	–	–	–	–	–	–	–	C[C@@H]1CC2C3C[C@H](F)C4=CC(=O)C=C[C@]4(C)[C@@]3(F)[C@@H](O)C[C@]2(C)[C@@]1(OC(=O)c1ccco1)C(=O)O (stereo partly shown) [Metabolite (X)]	> 0.25	> 1000	–	–	–
12	21	67	significantly higher affinity	greater accumulation	reduced flux	up to 2 hours	similar	0.9	approaching hepatic blood flow	C[C@@H]1CC2C3C[C@H](F)C4=CC(=O)C=C[C@]4(C)[C@@]3(F)[C@@H](O)C[C@]2(C)[C@@]1(OC(=O)c1ccco1)C(=O)SCF (stereo partly drawn) [Compound of Formula (I), 6α,9α-Difluoro-17α-[(2-furanylcarbonyl)oxy]-11β-hydroxy-16α-methyl-3-oxo-androsta-1,4-diene-17β-carbothioic acid S-fluoromethyl ester]	–	–	metabolised in an identical manner to fluticasone propionate	markedly reduced systemic exposure; also recorded: significantly lower exposure	metabolised in an identical manner to fluticasone propionate
2.1	11	78	–	–	–	up to 8 hours	–	–	–	CCC(=O)O[C@]1(C(=O)SCF)[C@H](C)C[C@H]2[C@@H]3C[C@H](F)C4=CC(=O)C=C[C@]4(C)[C@@]3(F)[C@@H](O)C[C@@]21C [Fluticasone propionate, 6α,9α-Difluoro-17α-(1-oxopropoxy)-11β-hydroxy-16α-methyl-3-oxo-androsta-1,4-diene-17β-carbothioic acid S-fluoromethyl ester, reference compound]	–	–	–	–	–
